Experimental data published in patent publication US20220211694A1, “QUINOLINE DERIVATIVES FOR TREATMENT OF HEAD AND NECK CANCER” (CHIA TAI TIANQING PHARMACEUTICAL GROUP CO., LTD., priority 2019, published 2022).
Counter-ions that a name gives are not always drawn.

Assays:
[1] = test system: head and neck adenocarcinoma; experiment: Clinical study of anlotinib hydrochloride capsules in recurrent/metastatic head and neck adenocarcinomas; format: in vivo, human; conditions: patients with head and neck adenocarcinoma; 12 mg once daily orally, d1-14 of each 21-day cycle
head and neck cancer = experiment: Clinical study of anlotinib with intensity modulated radiotherapy in previously untreated head and neck cancer; format: in vivo, human; conditions: patients with head and neck cancer; anlotinib 10 mg/day combined with radiotherapy
Description: Previously untreated patients with pathologically confirmed head and neck cancer, specifically including ones with nasopharyngeal carcinoma, tonsil cancer, floor of mouth cancer, oral cancer, laryngeal cancer and hypopharyngeal cancer, were all received intensity modulated radiotherapy after administration of anlotinib. The administration regimens are detailed below. Anlotinib: administered about one week before radiotherapy, 10 mg/day for a three-cycle treatment, consecutively two-week treatment and then one-week interruption, and whether the medicine was administered continuously was determined according to the change in tumors after radiotherapy. The efficacy evaluation observation indexes include 3-year overall survival (OS), […] (DFS), 3-year distant metastasis rate and local control rate. Patient, pathologically diagnosed with tonsil cancer, starting taking anlotinib hydrochloride capsules on Oct. 10, 2018 once daily, orally before breakfast at a dose of 10 mg each time, with consecutively two-week treatment and then one-week interruption; starting receiving radiation therapy on Oct. 15, 2018. Patient, pathologically diagnosed with nasopharyngeal carcinoma, starting taking anlotinib hydrochloride capsules on Nov. […]

[2] = test system: human laryngeal carcinoma TU212 cell line; experiment: MTT cell growth inhibition, TU212 cell line; format: cell-based; conditions: MTT method, in vitro
Description: (§1) The test drugs were dissolved in dimethyl sulfoxide to prepare a 100 mmol/L stock solution, which was stored at −20° C. for later use. When in use, the stock solution was diluted with a DMEM serum culture medium to a desired concentration.
(§2) The human laryngeal squamous cell carcinoma Hep-2 cell line and the human laryngeal carcinoma TU212 cell line were separately cultured in a DMEM complete culture medium containing 10% fetal bovine serum and 0.1 g/L streptomycin and penicillin (the final concentration is 100 U·mL^−1), and the mixtures were incubated in an incubator at 37° C./5% CO2. When the cell fusion reached about 85%, the cells were mixed and digested using 0.02% EDTA and 0.25% trypsin, and then the cells were collected, centrifuged at 1000 r/min, and subcultured.
(§3) The IC50 value can be measured by a conventional method in the art (e.g., conventional MTT method), or can be measured by the following method (MTT method). […]
(§4) Half maximal inhibitory concentration IC50 was calculated according to inhibition rates at all concentrations using GraphPad Prism 5 software.

[3] = test system: human laryngeal squamous cell carcinoma Hep-2 cell line; experiment: MTT cell growth inhibition, Hep-2 cell line; format: cell-based; conditions: MTT method, in vitro
Description: as §1, §2, §3, §4

[4] = test system: human oral squamous cell carcinoma CAL-27 cell line; experiment: MTT cell growth inhibition, CAL-27 cell line; format: cell-based; conditions: MTT method, in vitro
Description: as §1
(§5) The human oral squamous cell carcinoma scc4 cell line, the human oral squamous cell carcinoma CAL-27 cell line and the human oral squamous cell carcinoma HSC-4 cell line were separately cultured in a DMEM complete culture medium containing 10% fetal bovine serum and 0.1 g/L streptomycin and penicillin (the final concentration is 100 U·mL^−1), and the mixtures were incubated in an incubator at 37° C./5% CO2. When the cell confluence reached about 85%, the cells were mixed and digested using 0.02% EDTA and 0.25% trypsin, and then the cells were collected, centrifuged at 1000 r/min, and subcultured.
as §3, §4

[5] = test system: human oral squamous cell carcinoma HSC-4 cell line; experiment: MTT cell growth inhibition, HSC-4 cell line; format: cell-based; conditions: MTT method, in vitro
Description: as §1, §5, §3, §4

[6] = test system: human oral squamous cell carcinoma scc4 cell line; experiment: MTT cell growth inhibition, scc4 cell line; format: cell-based; conditions: MTT method, in vitro
Description: as §1, §5, §3, §4

Row | SMILES | clinical benefits [1] | clinical benefits (head and neck cancer) | effect on the proliferation of the human laryngeal carcinoma cells [2] | effect on the proliferation of the human laryngeal squamous cell carcinoma cells [3] | effect on the proliferation of the human oral squamous cell carcinoma cells [4] | effect on the proliferation of the human oral squamous cell carcinoma cells [5] | effect on the proliferation of the human oral squamous cell carcinoma cells [6]
1 | COc1cc2c(Oc3ccc4[nH]c(C)cc4c3F)ccnc2cc1OCC1(N)CC1 [anlotinib, 1-[[[4-(4-fluoro-2-methyl-1H-indol-5-yl)oxy-6-methoxyquinolin-7-yl]oxy]methyl]cyclopropylamine] | had clinical benefits | had clinical benefits | – | – | – | – | –
2 | COc1cc2c(Oc3ccc4[nH]c(C)cc4c3F)ccnc2cc1OCC1(N)CC1 [dihydrochloride of the compound I] | – | – | clear inhibitory effect | clear inhibitory effect | clear inhibitory effect | clear inhibitory effect | clear inhibitory effect
